Experimental findings from patent US20100093733A1, “AMIDE AND UREA DERIVATIVES FOR THE TREATMENT OF METABOLIC DISEASES” (PROSIDION LIMITED, priority 2007, published 2010) are described below.

The assay concerns the target T1, human DGAT1 (Homo sapiens, UniProt O75907).
T1 construct: Full length human DGAT10RF (1467 bp); 6xHis (pFastBac HTa vector leader) (N); made in house; host or cells: Sf21 insect cells (baculovirus); microsome fraction
T1 sequence (O75907 1-488): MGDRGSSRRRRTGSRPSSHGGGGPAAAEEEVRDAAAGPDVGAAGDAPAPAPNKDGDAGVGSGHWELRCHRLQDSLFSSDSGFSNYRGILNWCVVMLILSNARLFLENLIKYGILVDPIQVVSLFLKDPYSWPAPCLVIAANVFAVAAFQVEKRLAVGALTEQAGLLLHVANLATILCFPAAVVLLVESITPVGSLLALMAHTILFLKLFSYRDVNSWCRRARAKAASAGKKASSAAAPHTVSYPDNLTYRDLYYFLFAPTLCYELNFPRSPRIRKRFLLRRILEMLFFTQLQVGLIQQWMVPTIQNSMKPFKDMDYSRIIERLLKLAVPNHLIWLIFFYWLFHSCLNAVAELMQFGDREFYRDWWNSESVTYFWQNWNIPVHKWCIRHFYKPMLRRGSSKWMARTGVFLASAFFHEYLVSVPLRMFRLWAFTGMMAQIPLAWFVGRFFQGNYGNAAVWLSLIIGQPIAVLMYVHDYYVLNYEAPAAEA
Briefly: Evaluation of DGAT1 enzyme inhibition (14C-oleoyl CoA, TLC of triglyceride). In kind it is biochemical. The note with it: human DGAT1 microsomes from Sf21 cells, 30° C., 20 min. The procedure: DGAT assays for compound screening were carried out in 96-well round bottom plates in a total volume of 50 μl containing 25 mM Hepes pH 7.4, 150 mM NaCl, 2 mM MgCl2, 20 mM sodium fluoride, 1 mM dithiothreitol, 0.5 mg/mL BSA, 0.1% Triton X100, 200 uM DAG (1,2-dioleoyl-sn-glycerol) and 15 μM [^14C] oleoyl CoA (specific activity 50-60 mCi/mmol) and a range of inhibitor concentrations in 1% DMSO. Reactions were initiated by the addition of human DGAT1 microsomes (0.4 μg/well) followed by incubation at 30° C. for 20 min. At the end of incubation, reactions were stopped by the addition of 5 μl 0.5N HCl, then 4 μl of each reaction was spotted directly onto a silica gel 60 (20×20 cm) TLC plate pre-scored to give twenty 1 cm wide lanes for lipid separation. […]
Following chromatography, the triglyceride spots were cut out and placed in a scintillation vial for counting. The percentage inhibition values were calculated relative to control and where appropriate IC50 values were derived using the 4 parameter logistic model in XL fit.
The enzyme source used for the assay was prepared from Sf21 cells infected with baculovirus expressing human DGAT1. Full length human DGAT10RF (1467 bp) (Nucleotide Accession: NM 012079; Protein Accession: NP036211) was PCR amplified from human liver cDNA (Marathon Ready) and cloned into pFastBac HTa vector (Life Technologies) containing a 6-Histidine N-terminus. […]

With `COC(=O)[C@H]1CC[C@H](c2ccc(NC(=O)c3cc4ccccc4s3)cn2)CC1` [Example 114, Trans-4-{5-[(Benzo[b]thiophene-2-carbonyl)amino]-pyridin-2-yl}-cyclohexane-carboxylic acid methyl ester], the concentration for half-maximal inhibition (IC50) – broadly, the concentration that inhibits the measured activity by half – is 1.8 µM. Regarding `COc1ccc(C)cc1NC(=O)Nc1ccc([C@H]2CC[C@](O)(CC(=O)O)CC2)cc1` [Example 137, Syn-(1-Hydroxy-4-{4-[3-(2-methoxy-5-methylphenyl)-ureido]phenyl}-cyclohexyl)-acetic acid], the IC50 stood at 1.3 µM.
